SMILES strings stand for the structures. Several values for one entry are separate records, joined by “and”; a condition that tells them apart may be missing. Identical values can stand only once.

Sequence of Sodium channel protein type 9 subunit alpha (Q15858 whole entry): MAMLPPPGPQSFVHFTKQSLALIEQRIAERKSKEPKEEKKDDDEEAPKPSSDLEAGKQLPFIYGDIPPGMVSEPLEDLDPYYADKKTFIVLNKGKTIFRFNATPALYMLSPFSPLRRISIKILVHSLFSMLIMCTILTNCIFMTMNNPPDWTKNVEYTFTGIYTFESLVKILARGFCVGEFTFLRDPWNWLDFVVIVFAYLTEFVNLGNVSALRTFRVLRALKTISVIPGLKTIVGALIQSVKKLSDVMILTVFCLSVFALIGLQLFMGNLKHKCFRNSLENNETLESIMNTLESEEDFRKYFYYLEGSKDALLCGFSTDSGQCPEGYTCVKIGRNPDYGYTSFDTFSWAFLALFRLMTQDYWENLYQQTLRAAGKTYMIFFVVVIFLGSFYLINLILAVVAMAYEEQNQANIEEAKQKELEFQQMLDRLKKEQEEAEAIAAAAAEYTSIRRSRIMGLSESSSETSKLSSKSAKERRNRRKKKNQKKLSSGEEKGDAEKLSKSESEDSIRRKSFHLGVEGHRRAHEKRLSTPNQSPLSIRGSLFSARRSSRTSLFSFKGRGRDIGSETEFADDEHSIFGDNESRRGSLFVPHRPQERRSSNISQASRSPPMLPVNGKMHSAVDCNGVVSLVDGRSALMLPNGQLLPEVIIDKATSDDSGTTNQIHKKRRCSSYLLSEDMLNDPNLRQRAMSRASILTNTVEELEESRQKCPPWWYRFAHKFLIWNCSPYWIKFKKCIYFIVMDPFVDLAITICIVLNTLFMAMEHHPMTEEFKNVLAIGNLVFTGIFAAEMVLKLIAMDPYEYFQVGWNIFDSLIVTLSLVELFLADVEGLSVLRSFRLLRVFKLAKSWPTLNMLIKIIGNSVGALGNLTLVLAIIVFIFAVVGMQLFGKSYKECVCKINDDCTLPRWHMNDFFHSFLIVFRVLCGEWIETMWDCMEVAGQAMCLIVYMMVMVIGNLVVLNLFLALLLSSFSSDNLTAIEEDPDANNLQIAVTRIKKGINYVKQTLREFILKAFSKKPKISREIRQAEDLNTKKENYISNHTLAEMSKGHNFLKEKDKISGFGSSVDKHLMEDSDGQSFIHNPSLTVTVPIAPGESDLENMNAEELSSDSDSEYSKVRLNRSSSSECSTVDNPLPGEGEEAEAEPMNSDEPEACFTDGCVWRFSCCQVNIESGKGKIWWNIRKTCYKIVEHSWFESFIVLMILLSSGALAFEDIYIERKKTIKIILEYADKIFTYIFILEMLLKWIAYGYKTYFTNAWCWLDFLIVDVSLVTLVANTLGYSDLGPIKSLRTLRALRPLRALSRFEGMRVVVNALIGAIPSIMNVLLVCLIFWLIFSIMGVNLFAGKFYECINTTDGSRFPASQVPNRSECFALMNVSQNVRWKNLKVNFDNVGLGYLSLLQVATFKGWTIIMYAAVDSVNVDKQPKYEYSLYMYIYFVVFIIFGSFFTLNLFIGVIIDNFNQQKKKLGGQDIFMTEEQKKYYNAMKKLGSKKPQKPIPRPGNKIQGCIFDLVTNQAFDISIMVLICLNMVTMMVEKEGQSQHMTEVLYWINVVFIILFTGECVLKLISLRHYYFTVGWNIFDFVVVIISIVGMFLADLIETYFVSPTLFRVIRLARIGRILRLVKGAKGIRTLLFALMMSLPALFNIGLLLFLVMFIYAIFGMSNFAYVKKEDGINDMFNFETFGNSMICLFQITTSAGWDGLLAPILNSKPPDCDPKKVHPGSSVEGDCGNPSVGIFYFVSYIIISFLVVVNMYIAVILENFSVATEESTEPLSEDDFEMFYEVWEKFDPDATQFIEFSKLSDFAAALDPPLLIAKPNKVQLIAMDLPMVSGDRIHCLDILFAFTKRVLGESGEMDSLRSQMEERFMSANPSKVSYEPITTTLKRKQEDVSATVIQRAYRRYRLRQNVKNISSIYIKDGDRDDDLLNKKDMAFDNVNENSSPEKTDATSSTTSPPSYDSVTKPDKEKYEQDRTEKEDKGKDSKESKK

This experiment has as its target Sodium channel protein type 9 subunit alpha (Homo sapiens, UniProt Q15858). Kind of experiment: Compound effects were measured on a partially inactivated state of the sodium channel. Cells were clamped to a holding potential yielding 20 to 50% inactivation. To elicit sodium current, channels were activated by pulsing to -10 mV for 20 msec. This voltage protocol was repeated at a rate of 0.1 Hz throughout the experiment. The experiment is classed as cell-based, Sf9.
For `COc1nc(OCC2CCCCC2)c(Cl)cc1-n1c(=O)ccc2cc(S(=O)(=O)Nc3ccon3)ccc21`, it took 0.052 µM to reach half-maximal inhibition (IC50).
As for `COc1cc(C#CC(C)(C)OC)c(F)cc1-n1c(=O)ccc2cc(S(=O)(=O)Nc3ccon3)ccc21`, the figure is 0.373 µM.
Turning to `COc1cc(Br)c(F)cc1-n1c(=O)ccc2cc(S(=O)(=O)Nc3ccnc(C)n3)ccc21`, inhibition was half-maximal at 3.01 µM (IC50).
To `COc1ccc(CC(=O)OC(C)(C)C)cc1-n1c(=O)ccc2cc(S(=O)(=O)Nc3ccon3)ccc21` belongs 1.98 µM.
Turning to `COc1cc(C2CCOCC2)c(F)cc1-n1c(=O)ccc2cc(S(=O)(=O)Nc3ccon3)ccc21`, the IC50 (commonly the concentration that gives 50% inhibition) was found to be 3.07 µM.
For `COc1cc(-c2cc(Cl)cnc2OC)c(F)cc1-n1c(=O)ccc2cc(S(=O)(=O)Nc3ccon3)ccc21`, half-maximal inhibition (IC50) was put at 0.024 µM.
Compound `COc1cc(CC2CCCCC2)c(F)cc1-n1c(=O)ccc2cc(S(=O)(=O)Nc3ncccn3)ccc21` had an IC50 of 0.039 µM.
`COc1ccc(-c2cc(OC)c(-n3c(=O)ccc4cc(S(=O)(=O)Nc5ccon5)ccc43)cc2F)cc1Cl` had an IC50 of 0.025 µM.
The compound `COc1cc(-c2cc(F)cc(OC(F)F)c2)c(F)cc1-n1c(=O)ccc2cc(S(=O)(=O)Nc3ccon3)ccc21` showed an IC50 of 0.011 µM.
Consider `COc1cc(-c2ccc(-n3c(=O)ccc4cc(S(=O)(=O)Nc5ncccn5)ccc43)c(OC)c2)ccc1Cl`, for which inhibition was half-maximal at 0.021 µM (IC50).
As for `COc1cc(-c2ccc(-n3c(=O)ccc4cc(S(=O)(=O)Nc5cccnn5)ccc43)c(OC)c2)ccc1C`, the figure is 0.143 µM; as for `COc1cc(NS(=O)(=O)c2ccc3c(ccc(=O)n3-c3cc(F)c(Br)cc3OC)c2)ncn1`, 0.312 µM; as for `COc1cc(-c2cc(F)cc(C(F)(F)F)c2)ccc1-n1c(=O)ccc2cc(S(=O)(=O)Nc3ncco3)ccc21`, 0.037 µM.
`COc1cc(Cl)cc(-c2ccc(-n3c(=O)ccc4cc(S(=O)(=O)Nc5ccon5)ccc43)c(OC)c2)c1`: half-maximal inhibition (IC50) required 0.01 µM.
To `Cc1cc(-c2cc(C)c(-n3c(=O)ccc4cc(S(=O)(=O)Nc5ccncn5)ccc43)cc2F)ccc1Cl` belongs 0.684 µM.
To `CCc1nccc(NS(=O)(=O)c2ccc3c(ccc(=O)n3-c3cc(F)c(-c4cc(F)cc(Cl)c4)cc3OC)c2)n1` belongs 7.92 µM; to `COc1cc(Br)c(F)cc1-n1c(=O)ccc2cc(S(=O)(=O)Nc3cc(C)ncn3)ccc21`, 1.04 µM; to `COc1cc(-c2cc(F)cc(Cl)c2)c(F)cc1-n1c(=O)ccc2cc(S(=O)(=O)Nc3ncco3)ccc21`, 0.014 µM.
As for `COc1cc(-c2ccc(Cl)cc2)ccc1-n1c(=O)ccc2cc(S(=O)(=O)Nc3ccon3)ccc21`, the figure is 0.022 µM; as for `COc1cc(-c2ccc(-n3c(=O)ccc4cc(S(=O)(=O)Nc5cc(C)ncn5)ccc43)c(OC)c2)ccc1C`, 0.198 µM; as for `COc1cc(-c2ccc(C#N)c(C)c2)c(F)cc1-n1c(=O)ccc2cc(S(=O)(=O)Nc3ccon3)ccc21`, 0.091 µM.
For `COc1cc(-c2cccc(C(F)F)c2)c(F)cc1-n1c(=O)ccc2cc(S(=O)(=O)Nc3ccon3)ccc21`, the IC50 amounted to 0.035 µM.
`COc1cc(-c2cc(Cl)cnc2OC)c(F)cc1-n1c(=O)ccc2cc(S(=O)(=O)Nc3ncccn3)ccc21` registered an IC50 of 0.072 µM.
Turning to `COc1cc(OC)cc(-c2cc(OC)c(-n3c(=O)ccc4cc(S(=O)(=O)Nc5cccnn5)ccc43)cc2F)c1`, the IC50 was determined as 0.083 µM.
As for `COc1cc(OC)cc(-c2cc(OC)c(-n3c(=O)ccc4cc(S(=O)(=O)Nc5ncccn5)ccc43)cc2F)c1`, the figure is 0.064 µM; as for `COc1ccc(-c2ccc(F)nc2)cc1-n1c(=O)ccc2cc(S(=O)(=O)Nc3ccon3)ccc21`, 0.902 µM; as for `COc1cc(-c2ccc(Cl)c(C)c2)ccc1-n1c(=O)ccc2cc(S(=O)(=O)Nc3ncon3)ccc21`, 0.03 µM.
In turn, `COc1cc(C2CCCC2)c(F)cc1-n1c(=O)ccc2cc(S(=O)(=O)Nc3ccon3)ccc21` had an IC50 of 0.088 µM.
For the compound `COc1cc(-c2ccc(Cl)cc2)ccc1-n1c(=O)ccc2cc(S(=O)(=O)Nc3ncccn3)ccc21`, half-maximal inhibition (IC50) was put at 0.095 µM.
`COc1cc(Cl)cc(-c2ccc(-n3c(=O)cnc4cc(S(=O)(=O)Nc5ccon5)ccc43)c(OC)c2)c1` registered an IC50 of 0.052 µM.
The compound `COc1cc(-c2cc(Cl)ccc2C)ccc1-n1c(=O)ccc2cc(S(=O)(=O)Nc3ncccn3)ccc21` displayed an IC50 of 0.012 µM.
To `COc1cc(-c2cc(F)cc(C(F)(F)F)c2)ccc1-n1c(=O)ccc2cc(S(=O)(=O)Nc3ccon3)ccc21` belongs 0.009 µM; to `COc1cc(-c2ccc(-n3c(=O)ccc4cc(S(=O)(=O)Nc5ccnc(C)n5)ccc43)c(OC)c2)ccc1C`, 0.296 µM; to `COc1cc(Oc2ccc(F)cc2)ccc1-n1c(=O)ccc2cc(S(=O)(=O)Nc3ccon3)ccc21`, 0.049 µM.
`COc1cc(-c2ccc(-n3c(=O)ccc4cc(S(=O)(=O)Nc5ncc(F)cn5)ccc43)c(OC)c2)ccc1C` returned an IC50 of 0.166 µM.
In turn, `COc1cc(-c2cc(C)cc(F)c2)c(F)cc1-n1c(=O)ccc2cc(S(=O)(=O)Nc3ccon3)ccc21` yielded an IC50 of 0.008 µM.
For `COc1cc(-c2cccc(C(F)(F)F)c2)c(F)cc1-n1c(=O)ccc2cc(S(=O)(=O)Nc3cc(C)ncn3)ccc21`, the IC50 amounted to 0.01 µM.
To `COc1cc(C2CC2)c(Cl)cc1-n1c(=O)ccc2cc(S(=O)(=O)Nc3ccon3)ccc21` belongs 0.481 µM.
For the compound `COc1cc(CC2CCCCC2)c(F)cc1-n1c(=O)ccc2cc(S(=O)(=O)Nc3ncon3)ccc21`, half-maximal inhibition (IC50) was put at 0.03 µM.
As for `COc1cc(-c2ccc(F)cc2)c(F)cc1-n1c(=O)ccc2cc(S(=O)(=O)Nc3ccon3)ccc21`, the IC50 is 0.009 µM.
As for `COc1cc(-c2cccc(OC(F)F)c2)c(F)cc1-n1c(=O)ccc2cc(S(=O)(=O)Nc3ccnc(C)n3)ccc21`, the figure is 0.028 µM; as for `COc1cc(NS(=O)(=O)c2ccc3c(ccc(=O)n3-c3cc(F)c(-c4cc(F)cc(Cl)c4)cc3OC)c2)ncn1`, 0.049 µM.
With `COc1cc(-c2ccc(F)c(F)c2)c(F)cc1-n1c(=O)ccc2cc(S(=O)(=O)Nc3cccnn3)ccc21`, inhibition was half-maximal at 0.016 µM (IC50).
In turn, `COc1cc(-c2ccc(F)c(OC(F)F)c2)c(F)cc1-n1c(=O)ccc2cc(S(=O)(=O)Nc3ccon3)ccc21` yielded an IC50 of 0.022 µM.
On to `COc1cc(OC)cc(-c2cc(OC)c(-n3c(=O)ccc4cc(S(=O)(=O)Nc5ncc(F)cn5)ccc43)cc2F)c1`, for which the IC50 was found to be 0.033 µM.
Take `COc1cc(-c2ccc(Cl)c(C)c2)ccc1-n1c(=O)ccc2cc(S(=O)(=O)Nc3ncco3)ccc21`: the IC50 was found to be 0.009 µM.
Compound `COc1cc(-c2cc(OC)c(-n3c(=O)ccc4cc(S(=O)(=O)Nc5cccnn5)ccc43)cc2F)ccc1Cl` registered an IC50 of 0.01 µM.
In turn, `COc1cc(OC)cc(-c2cc(OC)c(-n3c(=O)ccc4cc(S(=O)(=O)Nc5ccon5)ccc43)cc2F)c1` gave an IC50 of 0.012 µM.
The compound `COc1cc(-c2cccc(C(F)(F)F)c2)c(F)cc1-n1c(=O)ccc2cc(S(=O)(=O)Nc3ncccn3)ccc21` gave an IC50 of 0.01 µM.
To `COc1cc(Cl)ccc1-c1cc(OC)c(-n2c(=O)ccc3cc(S(=O)(=O)Nc4ccon4)ccc32)cc1F` belongs 0.016 µM.
As for `COc1cc(C#CC2CCCC2)c(F)cc1-n1c(=O)ccc2cc(S(=O)(=O)Nc3cccnn3)ccc21`, the figure is 0.008 µM.
To `COc1cc(-c2cccc(OC(F)F)c2)c(F)cc1-n1c(=O)ccc2cc(S(=O)(=O)Nc3ncccn3)ccc21` belongs 0.023 µM; to `COc1cc(-c2cc(F)cc(C(F)(F)F)c2)ccc1-n1c(=O)ccc2cc(S(=O)(=O)Nc3ncc(F)cn3)ccc21`, 0.035 µM; to `COc1cc(Br)c(F)cc1-n1c(=O)ccc2cc(S(=O)(=O)Nc3nccc(C)n3)ccc21`, 1.56 µM.
`COc1cc(-c2ccc(-n3c(=O)ccc4cc(S(=O)(=O)Nc5ncccn5)ccc43)c(OC)c2)ccc1C`: the IC50 was 0.243 µM.
Turning to `COc1cc(C#CC2(C)COC2)c(F)cc1-n1c(=O)ccc2cc(S(=O)(=O)Nc3ccon3)ccc21`, inhibition was half-maximal at 1.55 µM (IC50).
As for `COc1cc(-c2ccc(F)c(F)c2)ccc1-n1c(=O)ccc2cc(S(=O)(=O)Nc3ncc(F)cn3)ccc21`, the figure is 0.076 µM; as for `CCc1nccc(NS(=O)(=O)c2ccc3c(ccc(=O)n3-c3cc(F)c(Br)cc3OC)c2)n1`, 0.124 µM; as for `COc1cc(C#CC2CCCC2)c(F)cc1-n1c(=O)ccc2cc(S(=O)(=O)Nc3ccon3)ccc21`, 0.022 µM.
The compound `COc1cc(-c2ccc(Cl)c(C)c2)c(F)cc1-n1c(=O)ccc2cc(S(=O)(=O)Nc3ccon3)c(F)cc21` gave an IC50 of 0.013 µM.
Regarding `COc1cc(-c2cc(Cl)ccn2)c(F)cc1-n1c(=O)ccc2cc(S(=O)(=O)Nc3ccon3)ccc21`, the concentration for half-maximal inhibition (IC50) amounted to 0.093 µM.
As for `COc1cc(-c2ccccn2)c(F)cc1-n1c(=O)ccc2cc(S(=O)(=O)Nc3ccon3)ccc21`, the figure is 0.888 µM; as for `COc1cc(CC2CCCC2)c(F)cc1-n1c(=O)ccc2cc(S(=O)(=O)Nc3ccon3)ccc21`, 0.011 µM.
As for `COCc1cc(NS(=O)(=O)c2ccc3c(ccc(=O)n3-c3cc(F)c(Br)cc3OC)c2)ncn1`, the figure is 4.53 µM; as for `COc1cc(Cl)cc(-c2cc(OC)c(-n3c(=O)ccc4cc(S(=O)(=O)Nc5ncccn5)ccc43)cc2C)c1`, 0.005 µM; as for `COc1cc(-c2ccc(Cl)c(C)c2)c(F)cc1-n1c(=O)cnc2cc(S(=O)(=O)Nc3ncccn3)ccc21`, 0.023 µM and 0.006 µM.
To `COc1cc(-c2ccc(Cl)c(C)c2)c(F)cc1-n1c(=O)ccc2cc(S(=O)(=O)Nc3ccncn3)ccc21` belongs 0.005 µM; to `COc1cc(-c2ccc(F)cc2)c(F)cc1-n1c(=O)ccc2cc(S(=O)(=O)Nc3ncccn3)ccc21`, 0.193 µM; to `COc1cc(C(F)(F)F)c(Cl)cc1-n1c(=O)ccc2cc(S(=O)(=O)Nc3ccncn3)ccc21`, 0.123 µM.

The values above are taken from ChEMBL document CHEMBL3886193, “Bicyclic sulfonamide compounds as sodium channel inhibitors” (2015).
